# Results: patent publication US20260345555A1, “Compositions and Methods for Protecting Salivary Glands from Off-Target Radiation Damage” (University of Rochester, priority 2022, published 2026)
# Legend:
# [1] = in vivo; cited from earlier work
# [2] = system: senescence-associated β-galactosidase in salivary gland cell clusters (SGm); assay: Cellular senescence assay (SPiDER-βGal) in salivary gland tissue chip, 5 days post-radiation (15 Gy); also second screen of library hits at 100 μM; assay type: cell-based, mouse; conditions: for Senescence normalized mean intensity: second screen of library hits at 100 μM, 5 days post-radiation, only drugs nonsignificant compared to 0 Gy in the glutathione assay; on Senescence (radioprotection): key: +: radioprotection; ~: partial radioprotection; —: no radioprotection
# Source text: The chip platform consists of an array of near-spherical microbubble (MB) cavities formed in poly(dimethylsiloxane) (PDMS). Each chip, containing ~50 MBs, affixed within wells of a 96-well plate (FIG. 1C). Primary salivary gland cell clusters (FIG. 1A), suspended in a poly(ethylene glycol) (PEG) hydrogel precursor and MMP-degradable peptide crosslinker solution together with the photoinitiator LAP, were applied to the chip allowing the clusters to deposit into the MBs (FIG. 1D). In situ polymerization of the hydrogel was achieved using long-wave, low intensity UV light. Over time, the cell clusters aggregate and proliferate to form SGm (FIG. 1C).
# For senescence, a protocol similar to the glutathione assay was followed to determine the optimal time point post-radiation for detecting a change in senescence between 0 Gy and 15 Gy, as measured by senescence-associated β-galactosidase activity.
# The glutathione and senescence assays were used to screen a library of FDA-approved drugs (Selleck Chemicals) at 100 μM. Drugs were first screened using the glutathione assay according to the timeline depicted in FIG. 2A. […] Hits with the glutathione assay were then tested with the senescence assay and considered a “double hit” if senescence levels were statistically similar to levels at 0 Gy (FIG. 4, black circles).
# Mice were euthanized and the submandibular glands (SMG) were removed and chopped with a razor blade for 5 min. […] Cells were centrifuged, then resuspended in HBSS with 15 mM HEPES and passed through 100 μm and 20 μm mesh filters to isolate clusters between 20-100 μm. […] The isolated clusters were combined with hydrogel precursor solution and seeded in MB array-based chips as described below.
# The cell/gel precursor solution (25 μL for 48 well; 20 μL for 96 well) was pipetted onto the MB chips and incubated for 30 min, pipetting every 10 min to redisperse cells that had settled onto the surface of the chip.
# A cellular senescence assay for the chips was developed by adapting the Cellular Senescence Detection Kit—SPiDER-βGal (Dojindo Molecular Technologies, Inc. SG04). Bafilomycin A1 and SPiDER-βGal stock solutions were prepared in DMSO per manufacturer directions. The assay was performed by first incubating the chips with bafilomycin A1 (1:1000 dilution in media) for 1 hr at 37 °C. […] Chips were washed twice with media and imaged using a fluorescence microscope with a Texas Red filter (Excitation: 580 nm; Emission: 604 nm).
# For radioprotection experiments, SGm were cultured in MB-hydrogel chips for 4 days, then drugs were added to the chips 30 min prior to irradiation and washed out with media 30 min post-radiation treatment. […] The glutathione and senescence assays were performed at 4- and 5-days post-radiation. For assay validation experiments, at least 3 chips (N=3) were used for each drug, corresponding to >100 MBs (n>100); these values are listed in the figure description for each experiment. Mean, standard deviation, and statistics were calculated based on the number of MBs (n).
# For screening of the Selleck Chemicals compound library, the same treatment scheme was used, with drugs administered at 100 μM. One MB chip (N=1) was used per compound, with ~40-50 MBs per chip […]; statistics were calculated using the number of MBs (n) and compared to 0 Gy controls.
# For both the glutathione and cellular senescence assays, images were quantified in ImageJ.
# [3] = literature; cited from earlier work
# [4] = system: Reduced glutathione in salivary gland cell clusters (SGm); assay: Glutathione assay in salivary gland tissue chip, 4 days post-radiation (15 Gy); also first screen of Selleck library at 100 μM; assay type: cell-based, mouse; conditions: for prevention of radiation-induced reduction of glutathione levels / Glutathione normalized mean intensity: 4 days post-radiation; for Glutathione normalized mean intensity: first screen of Selleck library at 100 μM; for protection against glutathione level changes resulting from radiation: 50 μM; for hit in the drug screen: glutathione assay first screen, 100 μM; on Glutathione (radioprotection): key: +: radioprotection; ~: partial radioprotection; —: no radioprotection
# In short: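 Mouse submandibular gland cell clusters (20–100 μm) in PEG hydrogel on microbubble chips, cultured 4 days to form SGm, then dosed 30 min before and during 15 Gy irradiation and washed out 30 min after. Glutathione measured 4 days post-radiation; library compounds screened at 100 μM, hits matching 0 Gy levels.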
# [5] = reason for exclusion from further testing; cited from earlier work
# [6] = system: p53-dependent and independent apoptosis; conditions: cited from earlier work
# [7] = system: irradiated salivary glands; conditions: literature; cited from earlier work
# COX-1 = conditions: role: inhibitor; cited from earlier work
# salivary flow rate = conditions: swine; cited from earlier work
# [8] = in vivo; cited from earlier work; remark: listed apart in the source
# lymphocyte cells = conditions: viability of lymphocytes as primary readout; cited from earlier work
compound,measurement,setting,value
CCCSc1ccc2nc(NC(=O)OC)[nH]c2c1 [Albendazole (Albenza)],bioavailability,[1],poor bioavailability
"CC1=NN(c2ccccc2)C(=O)C1 [Edaravone, 3-methyl-1-phenyl-2-pyrazoline-5-one]",Senescence (radioprotection),[2]; 100 μM,+
same,protection against radiation-induced senescence,[2]; 100 μM,protective
same,Senescence (radioprotection),[2]; 1 mM,+
same,Senescence (radioprotection),[2]; 4 mM,+
same,inhibition at 100 µM,"[2]; Mus musculus, light or radiation study, 120 h, 100 μM, versus untreated, irradiated controls, read-out: reduction in senescence",96%
same,inhibition at 1000 µM,"[2]; Mus musculus, light or radiation study, 120 h, 1 mM, versus untreated, irradiated controls, read-out: reduction in senescence",94%
same,inhibition at 4000 µM,"[2]; Mus musculus, light or radiation study, 120 h, 4 mM, versus untreated, irradiated controls, read-out: reduction in senescence",113%
same,radio-protective dose range,[3],100 to 1000 µM
same,radioprotection using the glutathione assay,[4]; 0.1 mM,partial radioprotection
same,glutathione levels maintained,"[4]; 0.1 mM, 15 Gy",~ 43%
same,Glutathione (radioprotection),[4]; 1 mM,+
same,prevention of radiation-induced reduction of glutathione levels,"[4]; 1 mM, 15 Gy",showed protection
same,prevention of radiation-induced reduction of glutathione levels,"[4]; 4 mM, 15 Gy",not at 4 mM
COC(=O)[C@@H]1CC2=CC(=O)CC[C@]2(C)[C@@]23O[C@@H]2C[C@@]2(C)[C@@H](CC[C@@]24CCC(=O)O4)[C@H]13 [Eplerenone],solubility,[5],concerns with solubility
CC(O)(P(=O)(O)O)P(=O)(O)O [Etidronate (Didronel)],Senescence normalized mean intensity,[2]; 15 Gy,0.992
same,Glutathione normalized mean intensity,[4]; 15 Gy,0.9486
same,bioavailability,[1],poor bioavailability
O=C(O)c1ccc(/C=C/S(=O)(=O)Cc2ccc(Cl)cc2)cc1 [Ex-Rad],radioprotection (senescence),"[2]; 50 μM, 15 Gy",45%
same,protection against glutathione level changes resulting from radiation,[4]; 15 Gy,no effect observed
same,apoptosis,[6],reduce p53-dependent and independent apoptosis
COc1ccc(Cl)cc1C(=O)NCCc1ccc(S(=O)(=O)NC(=O)NC2CCCCC2)cc1 [Glyburide],radioprotection,[3],radioprotectors
COc1ccc2c(c1)c(CC(=O)O)c(C)n2C(=O)c1ccc(Cl)cc1 [Indomethacin],mitigation of salivary gland damage,[7],mitigation of salivary gland damage
same,radioprotection in drug screen,[4]; 100 μM library screen,showed radioprotection
same,radioprotection in drug screen,[4]; concentrations lower than 100 μM,ineffective
same,COX-1 inhibition,COX-1,only blocks COX-1
CO[C@H]1C[C@@H]2CC[C@@H](C)[C@@](O)(O2)C(=O)C(=O)N2CCCC[C@H]2C(=O)O[C@H]([C@H](C)C[C@@H]2CC[C@@H](O)[C@H](OC)C2)CC(=O)[C@H](C)/C=C(\C)[C@@H](O)[C@@H](OC)C(=O)[C@H](C)C[C@H](C)/C=C/C=C/C=C/1C [Rapamycin],Senescence (radioprotection),[2]; 50 μM,+
same,protection against radiation-induced senescence,"[2]; 50 μM, 15 Gy",complete protection
same,protection against glutathione level changes resulting from radiation,[4]; 15 Gy,58%
same,salivary flow rate post-radiation,salivary flow rate,restore salivary flow rate post-radiation
C[C@]12C=CC(=O)C=C1CC[C@H]1[C@@H]3C[C@@H](O)[C@](O)(C(=O)CO)[C@@]3(C)C[C@H](O)[C@@]12F [Triamcinolone (Aristocort)],Senescence normalized mean intensity,[2]; 15 Gy,0.9883
same,Glutathione normalized mean intensity,[4]; 15 Gy,1.061
NCCCNCCSP(=O)(O)O [amifostine],adverse effects,[8],"severe side effects, including nausea, vomiting, and hypotension"
COc1c(N2CCNC(C)C2)c(F)cc2c(=O)c(C(=O)O)cn(C3CC3)c12 (stereo not drawn) [gatifloxacin],hit in the drug screen,[4],not hits
same,radioprotection of lymphocytes,lymphocyte cells,radioprotectors
Cc1ccc(S(=O)(=O)NC(=O)NN2CC3CCCC3C2)cc1 (stereo not drawn) [gliclazide],antioxidant activity,[3],antioxidant activity
same,radioprotection,[3],radioprotectors
C[C@H]1COc2c(N3CCN(C)CC3)c(F)cc3c(=O)c(C(=O)O)cn1c23 [levofloxacin],hit in the drug screen,[4],not hits
same,radioprotection of lymphocytes,lymphocyte cells,radioprotectors
COc1c(N2C[C@@H]3CCCN[C@@H]3C2)c(F)cc2c(=O)c(C(=O)O)cn(C3CC3)c12 [moxifloxacin],radioprotection of lymphocytes,lymphocyte cells,radioprotectors
CCn1cc(C(=O)O)c(=O)c2cc(F)c(N3CCNCC3)cc21 [norfloxacin],hit in the drug screen,[4],not hits
same,radioprotection of lymphocytes,lymphocyte cells,radioprotectors
CC1COc2c(N3CCN(C)CC3)c(F)cc3c(=O)c(C(=O)O)cn1c23 (stereo not drawn) [ofloxacin],hit in the drug screen,[4],not hits
same,radioprotection of lymphocytes,lymphocyte cells,radioprotectors
Meropenem,"radioprotection in dose response, senescence assay","[2]; dose response, 15 Gy",only partial protection
same,double hit in the drug screen,"[2]; glutathione and senescence assays, 100 μM, statistically similar to 0 Gy",double hits
same,"concentration range of radioprotection, glutathione assay","[4]; dose response, 15 Gy",0.1 to 100 µM
same,"Estimated EC50, Glutathione","[4]; nonlinear fit in Prism of dose response curves, 15 Gy",100 nM
